Data as given in patent publication US20050255493A1, “Molecular targeting of the IGF-1 receptor” (priority 2002, published 2005).

Legend:
MDA-MB-231 cells [1] = experiment: Clonogenic survival and post-irradiation survival (SF2) of transfected MDA-MB-231 cells; assay type: cell-based, human; details: MDA-MB-231, 100 nM
Description: FIG. 7 A) MDA-MB-231 cells transfected with 100 nM RNA duplexes were serum-starved overnight and treated with 50 nM IGF-I for 30 min. […] Results represent mean±sem of colony counts in triplicate dishes. Similar results were obtained in two further clonogenic assays. • C) Clonogenic survival of transfected MDA-MB-231 cells that were unirradiated or irradiated at 2Gy. The fraction surviving 2Gy irradiation (SF2) is shown as mean±sem of three independent assays.
The effect of transfection with 100 nM ASO4 or siRNA duplexes R4 and R5, equivalent to strongly and weakly hybridizing ASOs respectively, on colony forming efficiency and post-irradiation survival was also evaluated. […] This in turn illustrates the utility of hybridisation to the scanning ASO array in the selection of siRNA reagents, since relative hybridisation to the array is found to be predictive of activity in RNA interference and biological efficacy.

MDA-MB-231 cells [2] = experiment: Chemosensitisation of MDA-MB-231 cells to etoposide (clonogenic assay); assay type: cell-based, human; details: 200 nM
Description: FIG. 14 illustrates chemosensitisation of MDA-MB-231 cells to etoposide. MDA-MB-231 cells were transfected with 200 nM siRNA R4 or scrambled control duplex, re-seeded the following day at 2000 cells/6 cm dish, and the following day treated overnight with etoposide at the indicated concentrations. Thereafter the drug was washed off, dishes were incubated for 1 week at 37° C., and visible colonies were stained and counted.

R4: RNAi duplex CAAUGAGUACAACUACCGCTT / TTGUUACUCAUGUUGAUGGCG, SEQ ID NO:30 (CAAUGAGUACAACUACCGCNN; second strand not cited, chemistry not fully specified)
Survival after 2Gy irradiation (SF2) (MDA-MB-231 cells [1]; 2Gy): significant inhibition of survival after 2Gy irradiation | Clonogenic survival (MDA-MB-231 cells [1]; unirradiated): inhibited survival | Sensitivity to etoposide by clonogenic assay (MDA-MB-231 cells [2]): significantly enhanced
